Assay results taken from BigSolDB 2.1.

Nc1ccc(Cc2ccc(N)c(Cl)c2)cc1Cl
solubility (mole fraction)
Conditions | 283.15 K | 288.15 K | 293.15 K | 298.15 K | 303.15 K | 308.15 K | 313.15 K | 318.15 K | 323.15 K | 328.15 K
in 1,4-dioxane | – | 0.206 | 0.217 | 0.236 | 0.258 | 0.285 | 0.32 | 0.354 | 0.394 | 0.443
in DMAc | 0.339 | 0.348 | 0.366 | 0.384 | 0.41 | 0.436 | 0.466 | 0.502 | 0.548 | 0.587
in DMF | 0.306 | 0.316 | 0.33 | 0.347 | 0.373 | 0.396 | 0.425 | 0.462 | 0.502 | 0.545
in acetonitrile | 0.0208 | 0.0225 | 0.0251 | 0.0283 | 0.0323 | 0.0367 | 0.0419 | 0.048 | 0.0574 | 0.0671
in ethanol | 0.0223 | 0.0242 | 0.0272 | 0.0314 | 0.0362 | 0.0424 | 0.049 | 0.057 | 0.0677 | 0.0803
in ethyl acetate | 0.115 | 0.123 | 0.134 | 0.146 | 0.162 | 0.177 | 0.196 | 0.223 | 0.254 | 0.287
in ethylene glycol | 0.0057 | 0.00624 | 0.00816 | 0.00975 | 0.0123 | 0.0148 | 0.0181 | 0.0208 | 0.0239 | 0.0281
in isobutanol | 0.0136 | 0.015 | 0.0172 | 0.0197 | 0.0227 | 0.0259 | 0.0301 | 0.0357 | 0.0426 | 0.0513
in isopropanol | 0.0189 | 0.0203 | 0.0226 | 0.0261 | 0.0294 | 0.0336 | 0.039 | 0.0447 | 0.0532 | 0.0623
in methanol | 0.0163 | 0.018 | 0.02 | 0.0231 | 0.026 | 0.0297 | 0.0347 | 0.0405 | 0.048 | 0.0565
in n-butanol | 0.0298 | 0.0323 | 0.037 | 0.0425 | 0.0484 | 0.0551 | 0.0632 | 0.0737 | 0.0873 | 0.105
in n-propanol | 0.0257 | 0.0278 | 0.0322 | 0.0369 | 0.0422 | 0.0484 | 0.0562 | 0.066 | 0.0783 | 0.094
in water | 0.00014 | 0.000172 | 0.000228 | 0.000286 | 0.000342 | 0.000409 | 0.000475 | 0.000559 | 0.000684 | 0.000842
